Each structure is given as a SMILES string. “Also recorded” adds a separate entry of the source. Where two headings read alike, the source gives them in different places.

Results on 15 compounds are retold here after patent US4788181A, “5-substituted-2',3'-dideoxycytidine compounds with anti-HTLV-III activity” (priority 1986, dated 1988).

Data set [1] concerns HTLV-III/LAV. The data set is described as follows: HTLV-III/LAV cytopathic effect assay using ATH8 cells (protective effect). The class given is cell-based, HTLV-IIIB. The settings on record: for protective / anti-HTLV-III activity (in words): in vitro; for protection (in words): 200 micromolar; for doses required for protection (in words): relative to other dideoxy nucleosides / ddC 1. As to the method: ^a The percentage of protective effect of a nucleoside was determined
by the following formula:
100 × [(number of viable cells exposed to HTLVIII and cultured in
the presence of the nucleoside) - (number of viable cells exposed to
HTLVII I cultured in the absence of the nucleoside)]/[(number of viable
cells cultured alone) - (number of viable cells exposed to HTLVIII in the
absence of the nucleoside)].
(§1) HTLV-III/LAV cytopathic effect assay was performed using ATH8 cells as previously described.* Briefly, 2×10^5 ATH8 cells were exposed to HTLV-IIIB virus (2,000 virus particles/cell) for 45 min after treatment with polybrene, resuspended in 2 ml of culture medium containing interleukin 2 in the presence or absence of various concentrations of compounds, and incubated in culture tubes at 37° C. in 5% CO2 /95% air humidifedd atmosphere. Control cells were treated similarly but were not exposed to the virus. At various time points on days 5 to 7 of culture, the total viable cells were counted in a hemocytometer by the trypan blue dye exclusion method.

Data set [2] has as its system ATH8 cells. Description: Cytotoxicity to ATH8 cells cultured with the nucleoside (trypan blue viable cell count). The settings on record: in vitro. It counts as cell-based. As to the method: (§2) ^b The percentage of cytotoxicity was determined by the following
(§3) 100 × [1 - (number of viable cells cultured in the presence of the
(§4) nucleoside)/(number of viable cells cultured alone)].
as §1

Assay in data set [3]: as above
It counts as cell-based. The following applies: human. As to the method:
as §2, §3, §4, §1

Data set [4] deals with HTLV-III/LAV. The following applies: in vitro, cited from earlier work.
For data set [5] the following is noted: water or body fluids; listed as ddA; cited from earlier work.
The subject of data set [6] is reverse transcriptase. The following applies: cited from earlier work.
Data set [7] concerns T4^+ lymphocytes. The following applies: 0.5 and 5.0 micromoles; cited from earlier work.
Data set [8] can be described thus: Penetration of the blood-brain barrier / entry into the central nervous system.
Data set [9] is described as follows: Basicity and protonation. The class given is physicochemical. The following applies: relative to 2',3'-dideoxycytidine.
In data set [10] the test system is mouse fibroblasts. The settings on record: Cancer Research, 1975, 35, 1547-1554; cited from earlier work.
The test system of data set [11] is HTLV-III/LAV. The settings on record: cited from earlier work.
Where [12] appears, read: 10 μM, ATH8 cells, read-out: Cytotoxicity (%).
[13] abbreviates: 200 μM, ATH8 cells, read-out: Cytotoxicity (%).
[14] abbreviates: 50 μM, ATH8 cells, read-out: Cytotoxicity (%).
Setting [15] is: 5 μM, ATH8 cells, read-out: Cytotoxicity (%).
The mark [16] stands for this setting: 0.5 μM, ATH8 cells, read-out: Cytotoxicity (%).

On to `Nc1nc(=O)n([C@H]2CC[C@@H](CO)O2)cc1Br` [Compound 17, 2',3'-Dideoxy-5-bromocytidine], for which, in [1], the “protective / anti-HTLV-III activity (in words)” value is given as “neither protective nor cytotoxic”. For the same compound, in data set [2], the “cytotoxicity (in words)” value was “neither protective nor cytotoxic”. In [3] (ATH8 cells), this compound gave a cytotoxicity at 1 µM of 14%. Further, the cytotoxicity at 10 µM in data set [3] (setting [12]) is 14%. Besides, the cytotoxicity at 30 µM in data set [3] (30 μM, ATH8 cells) was 2%. In addition, in data set [3] (setting [13]), the cytotoxicity at 200 µM amounted to 0%.

Consider `Nc1ncn([C@H]2CC[C@@H](CO)O2)c(=O)n1` [Compound 10, 2',3'-Dideoxy-5-azacytidine], for which the “anti-HTLV-III activity (in words)” value in data set [1] (10 micromolar) was “significant anti-HTLV-III activity”. In addition, the “cytotoxicity (in words)” value in data set [2] is “clearly more cytotoxic than ddC”. The same compound came in with a cytotoxicity at 1 µM in data set [3] (ATH8 cells) of 13%. For the same compound, the cytotoxicity at 10 µM in data set [3] (setting [12]) was determined as 19%. The cytotoxicity at 50 µM in data set [3] (setting [14]) worked out at 62%.

On to `Cc1cn([C@H]2C[C@H](O)[C@@H](CO)O2)c(=O)nc1N` [Compound 16, 5-methyl-2'-deoxycytidine], for which the “protective / anti-HTLV-III activity (in words)” value in data set [1] is given as “neither protective nor cytotoxic”. In data set [2], the “cytotoxicity (in words)” value was “neither protective nor cytotoxic”.

As to `Cc1cn([C@H]2CC[C@@H](CO)O2)c(=O)nc1N` [Compound 15, 2',3'-Dideoxy-5-methylcytidine], the “protective / anti-HTLV-III activity (in words)” value in data set [1] is “devoid of protective effects”. In addition, the MCC in data set [3] (ath8 cells, read-out: concentration at which toxicity began to show) worked out at 100 µM. For the same compound, in [3] (ATH8 cells), the cytotoxicity at 2 µM is 23% and the cytotoxicity at 100 µM was found to be 44%. In [3] (setting [12]), the cytotoxicity at 10 µM was found to be 27%.

For `Nc1ncnc2c1ncn2[C@H]1CC[C@@H](CO)O1` [Compound 2], in [3] (ATH8 cells), the cytotoxicity at 1 µM worked out at 0% and the cytotoxicity at 100 µM worked out at 0%. Further, in data set [3] (setting [15]), the cytotoxicity at 5 µM came to 6%. Besides, the cytotoxicity at 10 µM in data set [3] (setting [12]) amounted to 0%. Also, the cytotoxicity at 50 µM in data set [3] (setting [14]) was 0%. In [3] (setting [13]), the cytotoxicity at 200 µM worked out at 0%. For the same compound, in data set [4], the “protection against the cytopathic effects of HTLV-III/LAV (in words)” value (shortened to “protection … of HTLV-III/LAV (in words)”) was “very effective”. In [5], the “solubility (in words)” value is “relatively insoluble; also recorded: not very soluble in water or body fluids”.

Take `Cc1ccc(C(=O)Nc2ccc(S(=O)(=O)O)c3cc(S(=O)(=O)O)cc(S(=O)(=O)O)c23)cc1NC(=O)c1cccc(NC(=O)Nc2cccc(C(=O)Nc3cc(C(=O)Nc4ccc(S(=O)(=O)O)c5cc(S(=O)(=O)O)cc(S(=O)(=O)O)c45)ccc3C)c2)c1` [suramin]: the “inhibition of reverse transcriptase (in words)” value (shortened to “inhibition … (in words)”) in data set [6] was “inhibit this enzyme”.

Consider `Cc1cn([C@H]2CC[C@@H](COP(=O)(O)O)O2)c(=O)[nH]c1=O` [Compound 26], for which the “protection (in words)” value in data set [1] was “essentially inactive”. For the same compound, in data set [3] (ath8 cells), the cytotoxicity at 10 µM was 9%, the cytotoxicity at 50 µM came to 9% and the cytotoxicity at 200 µM is 10%.

Regarding `Nc1ccn([C@H]2CC[C@@H](CO)O2)c(=O)n1` [Compound 1, 2',3'-dideoxycytidine], in data set [7], the “cytotoxicity (in words)” value is given as “non-cytotoxic”. In addition, in [3] (ath8 cells), the cytotoxicity at 0.05 µM amounted to 0%, the cytotoxicity at 0.5 µM is 0%, the cytotoxicity at 5 µM is 0% and the cytotoxicity at 50 µM is 30%. Also, in [8], the “penetration of the blood-brain barrier / entry into the central nervous system” value is listed as “enter the central nervous system, very poorly”. The “protection … of HTLV-III/LAV (in words)” value in [4] was “most potent member of the group on the basis of molarity”. Besides, in data set [4] (listed as ddC), the “protection … of HTLV-III/LAV (in words)” value is “potent protective agent; also recorded: very effective”.

For `O=C(O)P(=O)(O)O` [foscarnet], the “inhibition … (in words)” value in data set [6] is given as “inhibit this enzyme”.

What is called inhibition is how much of the control response was suppressed. With `Nc1nc(=O)n([C@H]2CC[C@@H](CO)O2)cc1F` [Compound 22, 2',3'-Dideoxy-5-fluorocytidine], in data set [1] (Human immunodeficiency virus 1, ATH-8, 0.05 μM, ATH8 cells, days 5 to 7), the inhibition at 0.05 µM came to 5%. The “protective / anti-HTLV-III activity (in words)” value in [1] was “as protective of HTLV-III infected cells as the lead compound 1”. Moreover, the cytotoxicity at 0.05 µM in data set [3] (0.05 μM, ATH8 cells, read-out: Cytotoxicity (%)) amounted to 5%. The cytotoxicity at 0.5 µM in [3] (setting [16]) amounted to 0%. For the same compound, the cytotoxicity at 5 µM in data set [3] (setting [15]) was found to be 0%. Besides, the cytotoxicity at 50 µM in data set [3] (setting [14]) is 9%. Further, the “penetration of the blood-brain barrier / entry into the central nervous system” value in data set [8] was “penetrate the blood-brain barrier”. For the same compound, in data set [9], the basicity result is on record as “less basic than the parent compound” and the protonation result is given as “less protonated than the parent compound”.

`Nc1ncnc2c1ncn2[C@H]1CC[C@@H](COP(=O)(O)O)O1` [Compound 25, 2',3'-dideoxyadenosine-5'-phosphate]: the inhibition at 1 µM in data set [1] (Human immunodeficiency virus 1, ATH-8, 1 μM, ATH8 cells, days 5 to 7) stood at 25%. The “protective / anti-HTLV-III activity (in words)” value in [1] is given as “just as active as the nucleoside 2, over a wide concentration range”. Further, in data set [1] (low concentrations), the “potency of ddAMP relative to ddA (in words)” value is “not more potent at low concentrations”. In data set [3] (ATH8 cells), this compound registered a cytotoxicity at 1 µM of 2% and a cytotoxicity at 100 µM of 0%. Also, the cytotoxicity at 5 µM in [3] (setting [15]) was found to be 10%. In data set [3] (setting [12]), the cytotoxicity at 10 µM was found to be 6%. In [3] (setting [14]), the cytotoxicity at 50 µM turned out to be 4%. Also, in [3] (setting [13]), the cytotoxicity at 200 µM was 5%. For the same compound, in data set [10], the “cytotoxicity in mouse fibroblasts (in words)” value was “cytotoxic consequences” and the “entry into mouse fibroblasts” value is “appeared to enter mouse fibroblasts intact”.

In the case of `Cc1cn([C@H]2CC[C@@H](CO)O2)c(=O)[nH]c1=O` [Compound 3, dideoxythymidine], in data set [1], the “protection (in words)” value was “considerable protection” and the “doses required for protection (in words)” value is on record as “unusually high doses”. In data set [1] (Human immunodeficiency virus 1, ATH-8, 10 μM, ATH8 cells, days 5 to 7), this compound registered an inhibition at 10 µM of 3%. The cytotoxicity at 10 µM in data set [3] (setting [12]) amounted to 8%. Also, the cytotoxicity at 50 µM in data set [3] (setting [14]) worked out at 8%. The same compound registered a cytotoxicity at 100 µM in data set [3] (ATH8 cells) of 13%. The cytotoxicity at 200 µM in data set [3] (setting [13]) was found to be 6%. The cytotoxicity at 500 µM in data set [3] (500 μM, ATH8 cells) was 30%. In addition, the cytotoxicity at 1000 µM in data set [3] (1000 μM, ATH8 cells) is 40%. Also, the cytotoxicity at 2000 µM in data set [3] (2000 μM, ATH8 cells) turned out to be 53%.

As for `NC(=O)c1ncn([C@@H]2O[C@H](CO)[C@@H](O)[C@H]2O)n1` [ribavirin], in data set [6], the “inhibition … (in words)” value is on record as “inhibit this enzyme”.

Regarding `Nc1ccn([C@H]2CC[C@@H](COP(=O)(O)O)O2)c(=O)n1` [Compound 24], the “doses required for protection (in words)” value in data set [1] is “significant protection was beginning to be observed at doses approximately ten times higher than were required for activity with ddC 1”. Moreover, the cytotoxicity at 0.5 µM in [3] (setting [16]) is 0%. In addition, the cytotoxicity at 2 µM in data set [3] (ATH8 cells) was 7%. In addition, the cytotoxicity at 10 µM in [3] (setting [12]) is 0%.

With `Cc1cn([C@H]2C[C@H](N=[N+]=[N-])[C@@H](CO)O2)c(=O)[nH]c1=O` [AZT, 3-azido-3'-deoxythymidine], in data set [11], the “activity in test systems (in words)” value is listed as “a compound with activity in test systems”.
